Laboratory results taken from patent US20060246131A1, “Use of metformin to counteract weight gain associated with psychotropic medications” (priority 2005, published 2006).

How the values were obtained:
[1] = person treated with GEODON; cited from earlier work
[2] = cited from earlier work
[3] = Case study: mood and behavior of a patient with Bipolar Affective Disorder NOS on aripiprazole; type: in vivo, human; details: person, BPAD NOS; aripiprazole 5 mg once daily; 2 weeks later
Source text: A person presented with behavioral problems.
The time of onset for childhood BPAD is frequently during the later years of the latency period, and typically includes rapid cycling, with disturbances in sleep, behavioral issues including aggression, grandiosity, and hyper-sexuality. At the time of evaluation, it was difficult to know if the patient also had co-occurring ADHD, combined subtype and Oppositional Defiant Disorder. Bipolar Affective Disorder, NOS appeared to be the more parsimonious diagnosis.
Additionally they were asked to keep a mood chart.

[4] = metformin 500 mg twice daily together with aripiprazole, over a 3-month period

SMILES: O=C1Cc2cc(CCN3CCN(c4nsc5ccccc45)CC3)c(Cl)cc2N1 [GEODON]
- weight gain [1]: significant weight gain

SMILES: CN(C)C(=N)NC(=N)N.Cl [Metformin hydrochloride, N,N-dimethylimidocarbonimidic diamide hydrochloride]
- pH of a 1% aqueous solution [2]: 6.68

SMILES: O=C1CCc2ccc(OCCCCN3CCN(c4cccc(Cl)c4Cl)CC3)cc2N1 [aripiprazole, 7-[4-[4-(2,3-dichlorophenyl)-1-piperazinyl]butoxy]-3,4-dihydrocarbostyril]
- behavioral outcome on return visit [3]: much more settled, with fewer outbursts, and no behavioral concerns

SMILES: CN(C)C(=N)N=C(N)N [metformin, N,N-dimethylimidocarbonimidic diamide]
- Body Mass Index (BMI) after treatment ([4]; BMI from 24.9): 22.6
- decrease in body weight [4]: seven
